# Where a SMILES comes first, the peptide text is derived from it.
# Conditions: acidic group
row,SMILES,pKa
1,CC(C)(OO)c1ccccc1,12.6
2,O=C(O)CCCc1c[nH]c[nH+]1,4.26
3,NCc1nc2ccccc2[nH]1,12.8
4,C(C[NH2+]CCc1nnn[nH]1)[NH2+]CCc1nnn[nH]1,3.11
5,Cc1cnc(C(=O)O)s1,3.03
6,O=Cc1ccc(O)c(O)c1,7.45
7,O=C(O)Cn1nnnc1-c1ccccc1,2.11
8,[NH3+]Cc1ccc(F)c(O)c1,8
9,CC(C#N)CC(=O)O (configuration not stated),3.95
10,Nc1c2[n-]cnc2nc[n+]1[O-],13
11,N#CC(C#N)=NNc1ccccc1Cl,5.84
12,COc1c(O)cccc1CN,10.5
13,Cn1c(C(=O)O)cc(=O)n(C)c1=O,0.8
14,CC(O)c1cccc(O)c1CO (configuration not stated),9.9
15,Nc1cc[nH+]c2c1ncn2CCOCP(=O)([O-])O,7.1
16,CC(C)(C)CCC(=O)O,4.83
17,Nc1cc(O)ccc1O,10.1
18,[O-]c1ccccc1-c1ccccc1O,14.7
19,CCOC(=S)S,1.79
20,N#CCc1ccc(C(=O)O)cc1,4.09
21,Oc1ccc2cc3ccccc3cc2c1,9.92
22,Cn1c(=S)[nH]c2cc3c(cc21)CCCC3,10.8
23,COc1cc2c(O)cc(C)[nH+]c2c2c(C)c(C)oc12,2.91
24,O=c1ccc(O)ccc1O,6.47
25,Oc1cc(-c2ccccc2)n(-c2ccccc2)n1,12.9
26,N#Cc1c(-c2nc3ccccc3s2)c(=O)oc2cc(O)ccc12,6.38

row,SMILES,pKa
1,O=C1C[C@@H](C(=O)O)[C@@H](C(=O)O)O1,2.26
2,Cc1ccc2ccccc2c1C(=O)O,3.11
3,CC[NH2+]CCCC(=O)O,3.92
4,COc1ccc(O)cc1C,10.2
5,COc1ccc(O)c(=O)cc1,7.75
6,Oc1ccc(F)cc1C[NH+]1CCCCC1,8.81
7,Oc1ccc(O)c2ncccc12,9.3
8,Cc1cc2nnn(O)c2cc1Cl,4.57
9,CC(C)c1ccccc1C(=O)O,3.64
10,CC(=O)c1ccc(CC(=O)O)s1,3.8
11,CC(C)C(O)C(C(=O)O)c1ccc(-c2ccccc2)cc1 (configuration not stated),4.13
12,O=C(O)C1COCCO1 (configuration not stated),3.15
13,Cc1cc(Nc2ccc(O)cc2)cc(C)c1O,10
14,[O-]c1c(O)cccc1O,11.2
15,COc1ccccc1/C=C/C(=O)O,4.57
16,O=[N+]([O-])c1ccccc1[Se]O,10.5
17,C/C=C/C=C/C(=O)O,4.53
18,O=S(=O)([O-])c1cc(O)c2[nH]ncc2c1,8
19,Cc1cc(/N=N/c2ccc(S(N)(=O)=O)cc2)cc(C(=O)O)c1O,2.25
20,O=C(O)[C@H]1CCC[C@H](O)C1,4.82
21,O=C(O)CSc1[nH]c2cc3ccccc3cc2[nH+]1,1.9
22,C[N+]1(CCCCCC(=O)O)CCCCC1,4.44
23,Cc1c(C(=O)O)[nH]c2ccccc12,4.33
24,Nc1ccc(S(=O)(=O)Nc2ncccn2)cc1,6.42
25,NC(=O)C1=CN2CCC1CC2,7.32
26,CCOC(=O)C[N+](=O)[O-],5.82

row,SMILES,pKa
1,C[n+]1ccc(O)nc1,1.91
2,O=C(O)CCc1ccsc1,4.45
3,[NH3+]CC(=O)N1CCC[C@H]1C(=O)O,2.95
4,Cc1ccc(O)cc1[N+](C)(C)C,8.28
5,C[C@H]1CC[C@H](C)C1C(=O)O,4.74
6,O=S(=O)(Nc1ccccc1)c1ccccc1,8.22
7,[NH3+]c1ccc(O[C@H]2O[C@@H](C(=O)O)[C@H](O)[C@@H](O)[C@@H]2O)cc1,3.1
8,C[n+]1cc(O)ccn1,1.74
9,C[N+](C)(C)CCC[N+](C)(C)CCCNC(=O)/C=N/O,8.31
10,[NH3+]CCCCC(=O)O,4.26
11,COc1cc(S(C)=O)ccc1-c1nc2ncncc2[nH]1 (configuration not stated),8.91
12,Cc1ccc(C)c(NN=C(C#N)C#N)c1,6.75
13,c1ncc2[nH]nnc2n1,4.88
14,Cc1ccccc1S(=O)O,1.47
15,Cc1cc(C(=O)O)n[nH]1,3.99
16,O=S(=O)(O)c1ccc(O)cc1,4.51
17,COc1ccc(/C=N/O)cc1,11
18,C[n+]1ccncc1O,-0.04
19,CC[NH+](C)CCCNC(=O)/C=N/O,8.72
20,CS(=O)O,2.35
21,CC[Si](C)(C)CC(=O)O,5.4
22,O=C([O-])[C@H](NCC[NH2+][C@@H](C(=O)[O-])c1ccccc1O)c1ccccc1O,8.79
23,O=C(O)c1cccc(/C=C/[N+](=O)[O-])c1,3.9
24,Brc1cn[nH]c1,12.7
25,Nc1c2[nH]cnc2nc[n+]1[O-],9

# Same assay, conditions: basic group
row,SMILES,pKa
1,CN(C)Cc1c(C(C)(C)C)cccc1C(C)(C)C,9.2
2,CNc1nc(NC)c2cn[nH]c2n1,6.08
3,NCc1nc2ccccc2[nH]1,8.02
4,OC1C=CC=CC=C1,-7
5,CC[NH+](CC)CCCCCCNc1c2ccc(Cl)cc2nc2ccc(OC)cc12,8.12
6,Cc1cccc2ncccc12,5
7,C=CCNCC=C,9.35
8,C1CNCCNCC[NH2+]C1,6.75
9,Nc1n[nH]c(N)c1/N=N/c1ccccc1,3.43
10,c1ccc(NC2=NCCCO2)cc1,9.33
11,N#CC(C#N)=NNc1ccccc1Cl,-0.77
12,CCOC(=O)COc1ccc(C(=O)c2ccc([O-])c(CN)c2)c(Cl)c1Cl,10.6
13,COc1c(O)cccc1CN,8.89
14,N#CCN1CCOCC1,2
15,CCC(=O)OC(C)CN(C)C (configuration not stated),8.26
16,CCCNCC(=O)O,10
17,Nc1cc(Cl)cc(C[NH3+])c1,3.54
18,CCCCCCCCCCCCN(CC(C)O)CC(O)CC (configuration not stated),6.2
19,FC(F)(F)c1ccc2cccnc2c1,3.16
20,c1ccc(N2CCCC2)cc1,4.3
21,CN1CC[C@@]23c4c5ccc(O)c4O[C@]2(C)C(=O)CC[C@@H]3[C@@H]1C5,8.08
22,COc1ccc(CN)cc1OC,9.39
23,CN1C(C)(C)CCCC1(C)C,11.2
24,COC(=O)CN,7.64
25,CCNc1ccnc([S-])n1,11.1

row,SMILES,pKa
1,Nc1nccc(-c2csc(N)n2)n1,4
2,O=C([O-])CN(CC(=O)[O-])Cc1cc([N+](=O)[O-])ccc1[O-],10.2
3,CCc1ncc[nH]1,8.05
4,Cc1n[nH]c2c(N)ncnc12,5.02
5,CCCn1ccnc1CO,7.04
6,[NH3+][C@@H](Cc1c[nH]cn1)C(=O)NCC(=O)[O-],5.8
7,Oc1ccc(O)c2ncccc12,4.5
8,c1ccc2c(c1)CNCCCNCc1ccccc1OCCO2,9.82
9,Nc1ccccc1Br,2.4
10,Nc1cc2c(cc1Br)CCCC2,3.05
11,CN(C)C(C)(C)C=O,8.4
12,Nc1ccc2[nH]c(Cc3ccccc3)[nH+]c2c1,3.3
13,Nc1nc([O-])nc2nc[nH]c12,8.99
14,CC1[C@H](N)[C@H]1N (some centres not stated),8.98
15,Cn1cnc2c([O-])nc(N)nc21,9.92
16,COC(=O)[C@@H]1[C@H](O)C[C@@H]2CC[C@H]1N2C,8.85
17,Nc1ccc2ccc([N+](=O)[O-])cc2c1,3.13
18,O=C1c2ccccc2CN1C1CC2CCC(C1)N2Cc1ccccc1 (configuration not stated),8.71
19,Nc1ccc(I)cc1,3.79
20,CCOCCn1c(N2CCC[NH+](CCCCn3cccn3)CC2)nc2ccccc21,4.9
21,CCCn1nnnc1N,1.8
22,c1ccc2c(c1)NCC[NH2+]2,2.11
23,CC1CCCC/C1=N\CC(=O)[O-] (configuration not stated),9.64
24,CCOCCn1c(N2CCCN(CCCCn3cccn3)CC2)nc2ccccc21,8.5
25,NCCNCCO,9.67

row,SMILES,pKa
1,CN(CCCN)CCCN,10.4
2,COCCNc1ccc(C)cc1,4.64
3,Cc1ccc(CON)cc1,4.4
4,Nc1ccc(S(=O)(=O)Nc2ncccn2)cc1,2
5,Cc1cc(-c2ccccc2)nn2c(C[NH+]3CCOCC3)cnc12,2.9
6,CC[NH2+]CCN,7.52
7,Cc1cc(NN)nc2ccccc12,8.35
8,CN(C)c1ccc(/C=N/c2ncc3nc[nH]c3n2)cc1,5.26
9,C#CC(C)(C(C)C)N(C)C(C)C (configuration not stated),8.7
10,COc1cc2c(cc1OC)C13CCN4C1CC1C(=CCOC5CC(=O)N2C3C51)[C@@H]4S(=O)(=O)[O-] (some centres not stated),3.12
11,c1ccc2nccnc2c1,0.64
12,O=Cc1cc(-c2ccccc2)nnc1NCC[NH+]1CCOCC1,2.6
13,Nc1ncc2ccccc2n1,4.8
14,COc1cncnc1[O-],8.6
15,Brc1cccnc1,2.94
16,CCCCCCCCCCCCCCCCN(CCCCCCCCCCCCCCCC)C(=O)[C@H](C)NC(=O)[C@H](Cc1c[nH]cn1)NC(=O)CCCCC[N+](C)(C)C.[Br-],7.2
17,[NH3+]c1ccccc1-c1nc2ccccc2s1,-1.8
18,CC[C@H](C)[C@H](N)C(=O)[O-],9.77
19,CNc1ccc(OC)cc1,5.93
20,Cc1nccn1C,7.64
21,[NH3+]CCCCCc1cccnc1,5.61
22,Cc1ccccc1N(C)C,6
23,CC(C)N(c1ccccc1)C(C)C,6.19
24,CCCCCCCCN(CC(O)CC)CC(O)CC (configuration not stated),7.5
25,Cc1ccnc([S-])[nH+]1,2.2

row,SMILES,pKa
1,CC(O)CN(CC(C)O)C(C)C (configuration not stated),9.33
2,COc1cc(S(C)=O)ccc1-c1nc2ncncc2[nH]1 (configuration not stated),2.69
3,Cc1ccc(C)c(NN=C(C#N)C#N)c1,-0.84
4,CCCCNCCCC,11.3
5,N=C(c1ccccc1)c1cccc(Cl)c1,5.69
6,CN(C)CC(CSCc1ccccc1)SCc1ccccc1 (configuration not stated),7.3
7,OCn1cnc2ccccc21,5.44
8,CC(C)N/C=[NH+]/c1ccc(-c2cn(C)cn2)cc1,5.39
9,NCCCCc1ccncc1,10.2
10,CCCCNCC[NH2+]CCCC,7.46
11,Cc1ccnc([S-])n1,8
12,CC[NH+](CC)CCNc1ccnc2ccccc12,8
13,CCc1cc(CC)c(OC)c(C(=O)NC[C@H]2CCCN2CC)c1[O-],9.54
14,c1ccc(C(OCCN2CCCCC2)c2ccccc2)cc1,8.03
15,Cc1ccc(S(=O)(=O)[N-]CCC(=N)N)cc1,10.8
16,NC(=O)C[C@H](NC(=O)[C@@H](N)CS)C(=O)O (H-Cys-Asn-OH),7.05
17,O=C([O-])[C@H](NCC[NH2+][C@@H](C(=O)[O-])c1ccccc1O)c1ccccc1O,6.33
18,Nc1nccs1,5.44
19,CCN(CC)CCCCC#N,10.1
20,c1coc(-c2ccncc2)c1,5.6
21,OC[C@H](O)[C@H](O)[C@@H](O)[C@H](O)c1nc2ccccc2[nH]1,5.28
22,Nc1c2[nH]cnc2nc[n+]1[O-],2.6
23,NCCN1CCOCC1,9.45
24,CCCCCCCCN(CC(C)O)CC(O)CC (configuration not stated),8.1
25,COc1nccc(C)n1,2.1

# From the pKa sets of Baltruschat and Czodrowski (2020)
